{"source": "PubChem BioAssay (NCI)", "test_in_all_cases": "NCI tumour cell line growth inhibition, 384-well format", "key": {"[1]": {"tested_on": "SN12C renal"}, "[2]": {"tested_on": "T-47D breast"}, "[3]": {"tested_on": "EKVX NSCLC"}, "[4]": {"tested_on": "MDA-MB-435 melanoma"}, "[5]": {"tested_on": "RXF 393 renal"}, "[6]": {"tested_on": "HT29 colon"}, "[7]": {"tested_on": "HCT-15 colon"}, "[8]": {"tested_on": "NCI-H522 lung"}, "[9]": {"tested_on": "SK-MEL-5 melanoma"}, "[10]": {"tested_on": "ACHN renal"}, "[11]": {"tested_on": "UACC-62 melanoma"}, "[12]": {"tested_on": "NCI/ADR-RES ovarian"}, "[13]": {"tested_on": "PC-3 prostate"}}, "note": "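The concentration for 50% growth inhibition is given as GI50. TGI: total growth inhibition.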", "data": [{"smiles": "CNC(=O)c1ccc(-c2cnc3ncc(Cc4ccc5ncccc5c4)n3n2)cc1F", "values": [{"measurement": "GI50", "setting": "[1]", "value": "> 77.6", "unit": "µM"}, {"measurement": "TGI", "setting": "[1]", "value": "> 100", "unit": "µM"}, {"measurement": "GI50", "setting": "[2]", "value": "> 100", "unit": "µM"}, {"measurement": "TGI", "setting": "[2]", "value": "> 100", "unit": "µM"}, {"measurement": "GI50", "setting": "[3]", "value": "> 100", "unit": "µM"}, {"measurement": "TGI", "setting": "[3]", "value": "> 100", "unit": "µM"}, {"measurement": "GI50", "setting": "[4]", "value": "> 100", "unit": "µM"}, {"measurement": "TGI", "setting": "[4]", "value": "> 100", "unit": "µM"}, {"measurement": "GI50", "setting": "[5]", "value": "> 43.1", "unit": "µM"}, {"measurement": "TGI", "setting": "[5]", "value": "> 100", "unit": "µM"}, {"measurement": "GI50", "setting": "[6]", "value": "> 100", "unit": "µM"}, {"measurement": "TGI", "setting": "[6]", "value": "> 100", "unit": "µM"}, {"measurement": "GI50", "setting": "[7]", "value": "> 100", "unit": "µM"}, {"measurement": "TGI", "setting": "[7]", "value": "> 100", "unit": "µM"}, {"measurement": "GI50", "setting": "[8]", "value": "> 100", "unit": "µM"}, {"measurement": "TGI", "setting": "[8]", "value": "> 100", "unit": "µM"}, {"measurement": "GI50", "setting": "[9]", "value": "> 100", "unit": "µM"}, {"measurement": "TGI", "setting": "[9]", "value": "> 100", "unit": "µM"}, {"measurement": "GI50", "setting": "[10]", "value": "> 100", "unit": "µM"}, {"measurement": "TGI", "setting": "[10]", "value": "> 100", "unit": "µM"}, {"measurement": "GI50", "setting": "[11]", "value": "> 100", "unit": "µM"}, {"measurement": "TGI", "setting": "[11]", "value": "> 100", "unit": "µM"}, {"measurement": "GI50", "setting": "[12]", "value": "> 100", "unit": "µM"}, {"measurement": "TGI", "setting": "[12]", "value": "> 100", "unit": "µM"}, {"measurement": "GI50", "setting": "[13]", "value": "> 100", "unit": "µM"}, {"measurement": "TGI", "setting": "[13]", "value": "> 100", "unit": "µM"}]}]}
